Laboratory results taken from PubChem BioAssay AID200 (DTP/NCI, 2004).
Where “and” joins values, the source holds several entries; their conditions need not be identical. Equal entries are not always repeated. Inconclusive results and toxic doses are left out. How the source made its calls: active means survival T/C of 150% or more; inactive means T/C below 125% in these data.

System: B6C3F1 mice, B16 melanoma ip, median survival T/C
Assay: NCI In Vivo Anticancer Drug Screen. Data for tumor model B16 Melanoma (intraperitoneal) in B6C3F1 mice
Conditions: endpoint: median survival time, higher = longer survival
Method in brief: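 Values are T/C ratios: the measurement in treated animals divided by that in vehicle-treated controls, using survival or tumor size in mice carrying transplantable tumors.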

[1] = dose: 3.12 mg/kg/injection, schedule: Q01DX009 (ip), vehicle: saline with Tween-80
[2] = dose: 50.0 mg/kg/injection, schedule: Q01DX009 (ip), vehicle: saline with Tween-80
[3] = dose: 100.0 mg/kg/injection, schedule: Q01DX009 (ip), vehicle: saline with Tween-80
[4] = dose: 200.0 mg/kg/injection, schedule: Q01DX009 (ip), vehicle: saline with Tween-80
[5] = dose: 12.5 mg/kg/injection, schedule: Q01DX009 (ip), vehicle: saline with Tween-80
[6] = dose: 25.0 mg/kg/injection, schedule: Q01DX009 (ip), vehicle: saline with Tween-80
[7] = dose: 400.0 mg/kg/injection, schedule: Q01DX009 (ip), vehicle: saline with Tween-80
[8] = dose: 6.25 mg/kg/injection, schedule: Q01DX009 (ip), vehicle: saline with Tween-80
[9] = dose: 3.12 mg/kg/injection, schedule: Q01DX009 (ip), vehicle: Klucel (hydroxypropylcellulose) (HPC)
[10] = dose: 6.25 mg/kg/injection, schedule: Q01DX009 (ip), vehicle: Klucel (hydroxypropylcellulose) (HPC)
[11] = dose: 12.5 mg/kg/injection, schedule: Q01DX009 (ip), vehicle: Klucel (hydroxypropylcellulose) (HPC)
[12] = dose: 25.0 mg/kg/injection, schedule: Q01DX009 (ip), vehicle: Klucel (hydroxypropylcellulose) (HPC)
[13] = dose: 50.0 mg/kg/injection, schedule: Q01DX009 (ip), vehicle: Klucel (hydroxypropylcellulose) (HPC)
[14] = dose: 100.0 mg/kg/injection, schedule: Q01DX009 (ip), vehicle: Klucel (hydroxypropylcellulose) (HPC)
[15] = dose: 200.0 mg/kg/injection, schedule: Q01DX009 (ip), vehicle: Klucel (hydroxypropylcellulose) (HPC)

Measured: T/C

Nc1ccc(C(OC(=O)c2cc3ccccc3c(Cc3c(O)c(C(=O)OC(c4ccc(N)cc4)(c4ccc(N)cc4)c4ccc(N)cc4)cc4ccccc34)c2O)(c2ccc(N)cc2)c2ccc(N)cc2)cc1
inactive: dose: 0.78 mg/kg/injection, schedule: Q01DX009 (ip), vehicle: saline with Tween-80 112 % of control and 96 % of control | [1] 111 % of control and 107 % of control | dose: 3.13 mg/kg/injection, schedule: Q01DX009 (ip), vehicle: saline with Tween-80 104 % of control

C1CCN(c2c3c(nc4nnnn24)CCC3)CC1
inactive: [2] 91 % of control | [3] 104 % of control | [4] 92 % of control

CCOC(=O)C1(c2ccccc2)C(=O)Oc2ccccc21 (stereo not drawn)
inactive: [5] 99 % of control and 100 % of control | [6] 101 % of control and 102 % of control | [2] 95 % of control and 105 % of control | [3] 93 % of control and 95 % of control | [4] 93 % of control and 100 % of control | [7] 91 % of control

CCCCNP1(NCCCC)=NP(NCCCC)(NCCCC)=NP(NCCCC)(NCCCC)=NP(NCCCC)(NCCCC)=N1
inactive: [8] 111 % of control and 98 % of control | [5] 115 % of control and 122 % of control and 101 % of control | [6] 119 % of control and 104 % of control | [2] 115 % of control

CCSc1ncnc2c1ncn2C1OC(CO)C(O)C1O (stereo not drawn)
inactive: [2] 93 % of control | [3] 95 % of control

CN1CCc2c(c3ccccc3c3ccccc23)C1
inactive: [9] 116 % of control and 94 % of control | [10] 87 % of control and 99 % of control | [11] 88 % of control and 102 % of control and 106 % of control | [12] 90 % of control and 102 % of control | [13] 116 % of control and 97 % of control and 102 % of control | [14] 118 % of control and 92 % of control

C/C1=C/C(C)C(O)C(O)C(=O)C2(C)CNC3=C(O2)C(=O)c2c(cc(C)c(O)c2C1=O)C3=O (stereo not drawn)
inactive: dose: 4.0 mg/kg/injection, schedule: Q01DX009 (ip), vehicle: distilled water + Tween-80 103 % of control | dose: 8.0 mg/kg/injection, schedule: Q01DX009 (ip), vehicle: distilled water + Tween-80 100 % of control | dose: 16.0 mg/kg/injection, schedule: Q01DX009 (ip), vehicle: distilled water + Tween-80 105 % of control | dose: 32.0 mg/kg/injection, schedule: Q01DX009 (ip), vehicle: distilled water + Tween-80 103 % of control

CN(C)c1ccc2c(NCCCCCCNc3ccnc4cc(N(C)C)ccc34)ccnc2c1
inactive: dose: 1.56 mg/kg/injection, schedule: Q01DX009 (ip), vehicle: distilled water + alcohol 94 % of control | dose: 3.12 mg/kg/injection, schedule: Q01DX009 (ip), vehicle: distilled water + alcohol 92 % of control | dose: 6.25 mg/kg/injection, schedule: Q01DX009 (ip), vehicle: distilled water + alcohol 106 % of control | dose: 12.5 mg/kg/injection, schedule: Q01DX009 (ip), vehicle: distilled water + alcohol 116 % of control | dose: 25.0 mg/kg/injection, schedule: Q01DX009 (ip), vehicle: distilled water + alcohol 112 % of control

CC(C)CC1C(=O)N2CCCC2C2(O)OC(NC(=O)C3C=C4c5cccc6[nH]cc(c56)CC4N(C)C3)(C(C)C)C(=O)N12 (stereo not drawn)
inactive: dose: 2.5 mg/kg/injection, schedule: Q01DX009 (ip), vehicle: Klucel (hydroxypropylcellulose) (HPC) 120 % of control | dose: 5.0 mg/kg/injection, schedule: Q01DX009 (ip), vehicle: Klucel (hydroxypropylcellulose) (HPC) 111 % of control | dose: 10.0 mg/kg/injection, schedule: Q01DX009 (ip), vehicle: Klucel (hydroxypropylcellulose) (HPC) 109 % of control | dose: 20.0 mg/kg/injection, schedule: Q01DX009 (ip), vehicle: Klucel (hydroxypropylcellulose) (HPC) 98 % of control | dose: 40.0 mg/kg/injection, schedule: Q01DX009 (ip), vehicle: Klucel (hydroxypropylcellulose) (HPC) 105 % of control

O=S(=O)(O)c1cc(N=C=S)ccc1/C=C/c1ccc(N=C=S)cc1S(=O)(=O)O
inactive: dose: 12.5 mg/kg/injection, schedule: Q01DX009 (ip), vehicle: saline 96 % of control | dose: 25.0 mg/kg/injection, schedule: Q01DX009 (ip), vehicle: saline 95 % of control | dose: 50.0 mg/kg/injection, schedule: Q01DX009 (ip), vehicle: saline 91 % of control | dose: 100.0 mg/kg/injection, schedule: Q01DX009 (ip), vehicle: saline 86 % of control

COc1ccc2c(c1OC(C)=O)-c1cc(O)cc3c1C(C2)N(C(=O)CN(CCCl)CCCl)CC3 (stereo not drawn)
active: [1] 164 % of control | [8] 153 % of control | [5] 207 % of control

O=C(NC(Cc1cn(Cc2ccccc2)cn1)C(=O)O)OCC1c2ccccc2-c2ccccc21 (stereo not drawn)
inactive: [14] 111 % of control | [15] 103 % of control | dose: 400.0 mg/kg/injection, schedule: Q01DX009 (ip), vehicle: Klucel (hydroxypropylcellulose) (HPC) 115 % of control

COc1cccc2c1C(=O)c1c(O)c3c(c(O)c1C2=O)C[C@@](O)(C(=O)CO)C[C@@H]3OC1CC(N)C(O)C(C)O1 (stereo partly drawn)
active: dose: 0.12 mg/kg/injection, schedule: Q01DX009 (ip), vehicle: water 166 % of control | dose: 0.13 mg/kg/injection, schedule: Q01DX009 (ip), vehicle: water 195 % of control | dose: 0.25 mg/kg/injection, schedule: Q01DX009 (ip), vehicle: water 188 % of control and 212 % of control and 252 % of control | dose: 0.5 mg/kg/injection, schedule: Q01DX001 (ip), vehicle: saline 152 % of control and 159 % of control | dose: 0.5 mg/kg/injection, schedule: Q01DX009 (ip), vehicle: water 226 % of control and 247 % of control and 285 % of control | dose: 1.0 mg/kg/injection, schedule: Q01DX001 (ip), vehicle: saline 165 % of control and 193 % of control | dose: 1.0 mg/kg/injection, schedule: Q01DX009 (ip), vehicle: water 264 % of control and 285 % of control and 320 % of control | dose: 2.0 mg/kg/injection, schedule: Q01DX001 (ip), vehicle: saline 151 % of control and 192 % of control and 244 % of control | dose: 2.0 mg/kg/injection, schedule: Q01DX005 (ip), vehicle: saline 326 % of control | dose: 2.0 mg/kg/injection, schedule: Q01DX009 (ip), vehicle: water 229 % of control and 278 % of control and 285 % of control | dose: 4.5 mg/kg/injection, schedule: Q01DX001 (ip), vehicle: saline 195 % of control | dose: 9.0 mg/kg/injection, schedule: Q01DX001 (ip), vehicle: saline 174 % of control and 255 % of control | dose: 10.0 micrograms/mouse/injection, schedule: Q01DX005 (ip), vehicle: saline 220 % of control | dose: 20.0 micrograms/mouse/injection, schedule: Q01DX005 (ip), vehicle: saline 197 % of control | dose: 40.0 micrograms/mouse/injection, schedule: Q01DX005 (ip), vehicle: saline 273 % of control
inactive: dose: 4.0 mg/kg/injection, schedule: Q01DX001 (iv), vehicle: saline 109 % of control | dose: 18.0 mg/kg/injection, schedule: Q01DX001 (ip), vehicle: saline 103 % of control | dose: 10.0 micrograms/kg/injection, schedule: Q01DX005 (ip), vehicle: saline 100 % of control | dose: 20.0 micrograms/kg/injection, schedule: Q01DX005 (ip), vehicle: saline 116 % of control

COC1=CC(=O)C(OC)=C(OC)C1=O
inactive: [1] 97 % of control | [8] 92 % of control | [5] 99 % of control

CC(C(C(=O)N1CCCCC1)N1CCCCC1)N1CCCCC1 (stereo not drawn)
inactive: [3] 94 % of control | [4] 95 % of control | [7] 103 % of control

CN(C)N=Nc1ccc(Cl)c2ncccc12
inactive: dose: 3.13 mg/kg/injection, schedule: Q01DX009 (ip), vehicle: other 115 % of control | dose: 6.25 mg/kg/injection, schedule: Q01DX009 (ip), vehicle: other 106 % of control | dose: 12.5 mg/kg/injection, schedule: Q01DX009 (ip), vehicle: other 109 % of control | dose: 25.0 mg/kg/injection, schedule: Q01DX009 (ip), vehicle: other 117 % of control | dose: 50.0 mg/kg/injection, schedule: Q01DX009 (ip), vehicle: other 114 % of control

Nc1ccc(C(=O)O)cc1
inactive: [9] 100 % of control and 104 % of control | [10] 114 % of control and 99 % of control and 103 % of control | [11] 114 % of control and 101 % of control | [12] 112 % of control and 90 % of control and 107 % of control | dose: 25.0 mg/kg/injection, schedule: Q01DX009 (ip), vehicle: water 98 % of control | [13] 100 % of control | dose: 50.0 mg/kg/injection, schedule: Q01DX009 (ip), vehicle: water 101 % of control | [14] 117 % of control | dose: 100.0 mg/kg/injection, schedule: Q01DX009 (ip), vehicle: water 102 % of control | [15] 105 % of control

CCOC(=O)CNC(=O)Sc1ccc(C(C)(C)C)cc1
inactive: [11] 100 % of control | [12] 100 % of control | [13] 102 % of control | [14] 105 % of control | [15] 115 % of control
